# Measurements reported in patent US20150307520A1, “NOVEL HETEROARYL AND HETEROCYCLE COMPOUNDS, COMPOSITIONS AND METHODS THEREOF” (HUTCHISON MEDIPHARMA LIMITED, priority 2012, published 2015).
# Experiments:
# Format in all cases: biochemical
# p110γ = p110γ (Homo sapiens, UniProt P48736); test: Transcreener KINASE Assay, kinase inhibition of p110γ; settings: for PI3Kγ IH % @ 1 uM: 1 uM test compound; for IC50: read-out: PI3Kγ IC50
# Summary of the method: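 Recombinant PI3K isoform complexes were tested in a two-step endpoint ADP-detection assay. Kinase reaction ran 80 min at room temperature, followed by 60 min with ADP detection mix. Far-red competitive fluorescence polarization immunoassay read-out; IC50s fitted from the FP data.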
# p110δ/p85α = p110δ/p85α (Homo sapiens, UniProt O00329); test: Transcreener KINASE Assay, kinase inhibition of p110δ/p85α; settings: for PI3Kδ IH % @ 1 uM: 1 uM test compound; for IC50: read-out: PI3Kδ IC50
# Summary of the method: (§1)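 Recombinant human PI3K heterodimers (p110/p85α) incubated with compound (2% DMSO final) in HEPES/NaCl/EGTA/CHAPS/MgCl2/DTT buffer with 30 uM PIP2 and 10 uM ATP (as added) for 80 min at room temperature.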
# p110β/p85α = p110β/p85α (Homo sapiens, UniProt P42338); test: Transcreener KINASE Assay, kinase inhibition of p110β/p85α; settings: for PI3Kβ IH % @ 1 uM: 1 uM test compound; for IC50: read-out: PI3Kβ IC50
# Summary of the method: as §1
# Chain of p110γ (P48736 whole entry, canonical isoform): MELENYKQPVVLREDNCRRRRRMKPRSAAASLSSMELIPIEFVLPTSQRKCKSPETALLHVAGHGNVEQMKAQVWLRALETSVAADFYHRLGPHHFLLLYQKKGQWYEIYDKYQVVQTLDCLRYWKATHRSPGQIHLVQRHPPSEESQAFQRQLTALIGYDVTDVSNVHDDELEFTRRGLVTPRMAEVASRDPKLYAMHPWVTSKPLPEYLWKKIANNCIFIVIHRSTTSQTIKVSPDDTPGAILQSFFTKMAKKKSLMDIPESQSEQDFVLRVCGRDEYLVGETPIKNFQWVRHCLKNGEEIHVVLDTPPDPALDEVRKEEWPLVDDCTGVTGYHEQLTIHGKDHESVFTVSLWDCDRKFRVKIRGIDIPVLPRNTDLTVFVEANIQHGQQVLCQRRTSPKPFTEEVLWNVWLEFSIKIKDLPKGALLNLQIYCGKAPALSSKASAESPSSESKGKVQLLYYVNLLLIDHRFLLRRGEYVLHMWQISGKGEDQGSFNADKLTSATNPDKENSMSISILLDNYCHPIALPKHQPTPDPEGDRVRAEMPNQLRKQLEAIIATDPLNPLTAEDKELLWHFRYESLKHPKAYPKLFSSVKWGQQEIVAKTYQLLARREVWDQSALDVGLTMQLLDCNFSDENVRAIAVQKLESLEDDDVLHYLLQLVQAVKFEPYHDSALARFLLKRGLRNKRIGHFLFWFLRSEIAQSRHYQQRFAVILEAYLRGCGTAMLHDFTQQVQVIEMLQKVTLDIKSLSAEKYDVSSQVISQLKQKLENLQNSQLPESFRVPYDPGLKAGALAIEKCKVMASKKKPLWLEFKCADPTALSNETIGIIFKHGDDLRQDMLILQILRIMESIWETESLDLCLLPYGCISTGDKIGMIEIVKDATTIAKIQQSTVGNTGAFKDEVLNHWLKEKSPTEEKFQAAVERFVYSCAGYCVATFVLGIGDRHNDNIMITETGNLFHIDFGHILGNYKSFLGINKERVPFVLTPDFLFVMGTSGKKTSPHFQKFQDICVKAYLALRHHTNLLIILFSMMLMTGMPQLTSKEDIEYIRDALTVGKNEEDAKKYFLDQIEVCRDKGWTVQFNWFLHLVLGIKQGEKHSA
# Chain of p110β/p85α (P42338 whole entry): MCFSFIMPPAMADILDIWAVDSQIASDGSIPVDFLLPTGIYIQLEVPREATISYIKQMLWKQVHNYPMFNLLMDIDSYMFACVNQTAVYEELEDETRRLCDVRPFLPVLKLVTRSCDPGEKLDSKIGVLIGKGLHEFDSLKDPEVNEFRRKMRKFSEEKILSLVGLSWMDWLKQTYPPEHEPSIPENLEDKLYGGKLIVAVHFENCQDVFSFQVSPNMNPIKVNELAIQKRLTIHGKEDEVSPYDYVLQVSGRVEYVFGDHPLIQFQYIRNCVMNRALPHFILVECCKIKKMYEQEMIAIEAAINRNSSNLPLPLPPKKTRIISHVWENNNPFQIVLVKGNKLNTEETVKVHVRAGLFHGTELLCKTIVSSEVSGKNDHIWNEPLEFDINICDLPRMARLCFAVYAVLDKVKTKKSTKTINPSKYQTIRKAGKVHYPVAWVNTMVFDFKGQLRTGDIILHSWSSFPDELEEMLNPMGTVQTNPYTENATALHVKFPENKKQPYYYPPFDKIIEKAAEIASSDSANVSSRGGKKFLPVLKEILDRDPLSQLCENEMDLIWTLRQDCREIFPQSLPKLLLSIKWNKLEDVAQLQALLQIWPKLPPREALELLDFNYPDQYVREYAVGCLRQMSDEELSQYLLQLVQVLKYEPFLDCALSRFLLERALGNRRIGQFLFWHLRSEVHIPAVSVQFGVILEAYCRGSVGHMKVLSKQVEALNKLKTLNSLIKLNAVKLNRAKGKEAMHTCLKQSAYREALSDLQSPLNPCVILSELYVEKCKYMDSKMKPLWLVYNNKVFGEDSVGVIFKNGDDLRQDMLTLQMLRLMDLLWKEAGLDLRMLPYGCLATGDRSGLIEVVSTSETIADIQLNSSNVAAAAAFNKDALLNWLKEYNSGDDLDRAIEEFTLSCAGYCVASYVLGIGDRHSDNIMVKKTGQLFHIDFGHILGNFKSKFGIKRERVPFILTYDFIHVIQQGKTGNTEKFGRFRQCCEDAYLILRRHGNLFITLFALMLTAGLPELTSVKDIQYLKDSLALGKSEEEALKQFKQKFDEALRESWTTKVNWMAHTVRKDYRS
# Chain of p110β/p85α (P27986 2-724 partner): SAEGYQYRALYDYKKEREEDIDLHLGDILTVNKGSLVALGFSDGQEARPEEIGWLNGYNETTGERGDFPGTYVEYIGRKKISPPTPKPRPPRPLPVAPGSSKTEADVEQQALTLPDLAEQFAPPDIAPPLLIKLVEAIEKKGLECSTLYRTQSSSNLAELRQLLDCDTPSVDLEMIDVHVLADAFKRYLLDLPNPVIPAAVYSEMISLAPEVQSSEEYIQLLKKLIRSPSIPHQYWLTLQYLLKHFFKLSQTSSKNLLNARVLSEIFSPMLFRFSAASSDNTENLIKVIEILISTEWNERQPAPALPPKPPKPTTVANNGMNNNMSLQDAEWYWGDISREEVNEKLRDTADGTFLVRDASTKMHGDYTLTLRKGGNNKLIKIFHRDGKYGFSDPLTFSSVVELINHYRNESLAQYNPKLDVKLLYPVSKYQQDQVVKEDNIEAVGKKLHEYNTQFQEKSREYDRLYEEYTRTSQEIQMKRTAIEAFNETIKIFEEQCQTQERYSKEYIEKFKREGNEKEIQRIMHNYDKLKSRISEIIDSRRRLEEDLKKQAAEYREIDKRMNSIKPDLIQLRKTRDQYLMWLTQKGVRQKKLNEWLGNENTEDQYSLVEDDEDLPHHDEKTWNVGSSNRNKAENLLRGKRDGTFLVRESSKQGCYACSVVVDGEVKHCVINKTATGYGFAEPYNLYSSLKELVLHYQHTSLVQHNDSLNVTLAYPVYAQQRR
# Chain of p110δ/p85α (O00329 whole entry): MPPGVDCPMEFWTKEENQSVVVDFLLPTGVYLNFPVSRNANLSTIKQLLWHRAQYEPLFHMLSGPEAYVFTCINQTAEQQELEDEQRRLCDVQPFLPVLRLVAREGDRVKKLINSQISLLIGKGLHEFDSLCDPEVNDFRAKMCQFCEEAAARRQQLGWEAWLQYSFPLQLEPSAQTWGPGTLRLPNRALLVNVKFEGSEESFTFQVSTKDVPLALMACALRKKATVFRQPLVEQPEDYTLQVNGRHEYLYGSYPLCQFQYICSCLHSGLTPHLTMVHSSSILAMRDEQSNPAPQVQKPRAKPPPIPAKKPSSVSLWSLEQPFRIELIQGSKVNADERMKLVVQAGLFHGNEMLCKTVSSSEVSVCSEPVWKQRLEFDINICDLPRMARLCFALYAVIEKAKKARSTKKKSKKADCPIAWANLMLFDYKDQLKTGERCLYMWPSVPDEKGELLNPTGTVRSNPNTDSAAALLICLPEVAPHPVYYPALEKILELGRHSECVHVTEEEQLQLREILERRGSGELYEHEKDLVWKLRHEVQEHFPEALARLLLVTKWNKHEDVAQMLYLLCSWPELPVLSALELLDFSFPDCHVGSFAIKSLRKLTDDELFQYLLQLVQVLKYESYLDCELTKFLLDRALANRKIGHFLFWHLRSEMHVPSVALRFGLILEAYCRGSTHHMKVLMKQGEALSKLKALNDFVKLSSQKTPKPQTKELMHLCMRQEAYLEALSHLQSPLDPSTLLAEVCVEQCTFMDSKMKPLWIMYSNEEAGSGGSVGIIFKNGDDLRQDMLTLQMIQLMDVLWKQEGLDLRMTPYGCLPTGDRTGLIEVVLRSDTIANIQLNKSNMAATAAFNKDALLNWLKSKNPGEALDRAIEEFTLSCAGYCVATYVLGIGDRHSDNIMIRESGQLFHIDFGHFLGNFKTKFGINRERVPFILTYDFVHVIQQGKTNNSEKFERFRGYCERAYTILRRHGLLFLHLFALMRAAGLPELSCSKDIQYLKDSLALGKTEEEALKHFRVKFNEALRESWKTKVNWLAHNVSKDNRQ
# Chain of p110δ/p85α (P27986 whole entry partner): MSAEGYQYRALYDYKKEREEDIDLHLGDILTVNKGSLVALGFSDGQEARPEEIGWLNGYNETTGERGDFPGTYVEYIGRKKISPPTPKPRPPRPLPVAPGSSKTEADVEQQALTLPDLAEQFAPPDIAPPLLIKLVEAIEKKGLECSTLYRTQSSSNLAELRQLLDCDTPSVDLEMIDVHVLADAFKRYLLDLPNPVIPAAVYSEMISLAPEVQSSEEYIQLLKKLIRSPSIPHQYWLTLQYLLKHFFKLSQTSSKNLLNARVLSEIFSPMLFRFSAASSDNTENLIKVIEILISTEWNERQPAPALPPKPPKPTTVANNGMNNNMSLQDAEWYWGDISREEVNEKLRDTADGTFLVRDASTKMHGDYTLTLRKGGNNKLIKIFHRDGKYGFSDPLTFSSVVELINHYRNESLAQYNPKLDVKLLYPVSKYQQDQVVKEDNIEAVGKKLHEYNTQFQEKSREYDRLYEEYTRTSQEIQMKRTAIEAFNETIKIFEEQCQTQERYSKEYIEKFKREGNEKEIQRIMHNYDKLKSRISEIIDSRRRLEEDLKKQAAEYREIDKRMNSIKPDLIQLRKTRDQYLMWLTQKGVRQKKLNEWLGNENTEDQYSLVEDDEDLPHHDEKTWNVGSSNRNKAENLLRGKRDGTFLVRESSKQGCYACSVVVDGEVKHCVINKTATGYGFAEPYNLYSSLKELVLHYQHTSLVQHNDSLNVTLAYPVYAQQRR
SMILES,PI3Kγ IH % @ 1 uM (p110γ) [%],IC50 (p110γ) [nM],PI3Kδ IH % @ 1 uM (p110δ/p85α) [%],IC50 (p110δ/p85α) [nM],PI3Kβ IH % @ 1 uM (p110β/p85α) [%],IC50 (p110β/p85α) [nM]
Cc1nc(N)nc(N2CC[C@H]2c2nn3ccc(F)c3c(=O)n2-c2ccccc2)c1C#N [Compound 322],>100,27,99.5,5,58.0,
CC(=O)c1cnc(N)nc1N1CC[C@H]1c1nn2ccc(F)c2c(=O)n1-c1ccccc1 [Compound 323],>100,21,99.4,12,6.1,
CC(=O)c1cnc(N)nc1N1C[C@H](C)[C@H]1c1nn2ccc(F)c2c(=O)n1-c1ccccc1 [Compound 324],>100,5,98.8,1,67.1,456
Nc1ncc(C(=O)C2CC2)c(N2CC[C@H]2c2nn3ccc(Cl)c3c(=O)n2-c2ccccc2)n1 [Compound 326],50.7,,7.1,,−23.5,
Nc1nc2c(c(N3CCCC3c3cn4ccc(Cl)c4c(=O)n3-c3ccccc3)n1)C(=O)CCN2 (stereo not drawn) [Compound 327],97.2,1,99.5,2,73.4,250
Nc1nc(N2CCC[C@H]2c2nn3ccc(Cl)c3c(=O)n2-c2ccccc2)c2cccn2n1 [Compound 331],>100,147,71.9,121,20.9,
Nc1nc(N2CC[C@H]2c2nn3ccc(Cl)c3c(=O)n2-c2ccccc2)c2ncccc2n1 [Compound 334],82.1,68,25.7,,11.2,
Nc1nc(N2CCC[C@H]2c2nn3ccc(Cl)c3c(=O)n2-c2ccccc2)c2ncccc2n1 [Compound 335],69.5,,48.4,,17.0,
"N#Cc1c[nH]c2ncnc(N3CCC[C@H]3c3nn4ccc(Cl)c4c(=O)n3-c3ccccn3)c12 [Compound 337, (S)-4-(2-(5-chloro-4-oxo-3-(pyridin-2-yl)-3,4-dihydropyrrolo[2,1-f][1,2,4]triazin-2-yl)pyrrolidin-1-yl)-7H-pyrrolo[2,3-d]pyrimidine-5-carbonitrile]",>100,5,99.2,1,93.2,21
CC(=O)c1c[nH]c2ncnc(N3CCC[C@H]3c3nn4ccc(Cl)c4c(=O)n3-c3ccccn3)c12 [Compound 340],94.3,9,100.0,1,76.1,163
Cc1cccc(-n2c([C@@H]3CCCN3c3ncnc4[nH]cnc34)nn3ccc(Cl)c3c2=O)n1 [Compound 342],77.1,272,92.1,38,45.2,
O=c1c2c(Cl)ccn2nc([C@@H]2CCCN2c2ncnc3[nH]cnc23)n1-c1ccncn1 [Compound 344],85.5,81,94.8,85,57.3,
N#Cc1c[nH]c2ncnc(N3C[C@@H](F)C[C@H]3c3nn4ccc(Cl)c4c(=O)n3-c3ccccn3)c12 [Compound 345],97.1,4,>100,1,93.2,28
N#Cc1c[nH]c2ncnc(N3C[C@@H](F)C[C@H]3c3nn4ccc(F)c4c(=O)n3-c3ccccn3)c12 [Compound 346],94.1,26,>100,2,86.1,47
"N#C[C@H]1C[C@@H](c2nn3ccc(Cl)c3c(=O)n2-c2cccc(F)c2)N(c2ncnc3[nH]cnc23)C1 [Compound 347, (3S,5S)-5-(5-chloro-3-(3-fluorophenyl)-4-oxo-3,4-dihydropyrrolo[2,1-f][1,2,4]triazin-2-yl)-1-(9H-purin-6-yl)pyrrolidine-3-carbonitrile]",91.8,13,98.3,2,87.8,70
"C[S@+]([O-])c1c[nH]c2ncnc(N3C[C@@H](C#N)C[C@H]3c3nn4ccc(Cl)c4c(=O)n3-c3cccc(F)c3)c12 [Compound 348, (3S,5S)-5-(5-chloro-3-(3-fluorophenyl)-4-oxo-3,4-dihydropyrrolo[2,1-f][1,2,4]triazin-2-yl)-1-(5-((S)-methylsulfinyl)-7H-pyrrolo[2,3-d]pyrimidin-4-yl)pyrrolidine-3-carbonitrile]",75.6,312,96.9,39,51.2,

# The remaining lines, values ahead:
PI3Kγ IH % @ 1 uM (p110γ) [%],IC50 (p110γ) [nM],PI3Kδ IH % @ 1 uM (p110δ/p85α) [%],IC50 (p110δ/p85α) [nM],PI3Kβ IH % @ 1 uM (p110β/p85α) [%],IC50 (p110β/p85α) [nM],SMILES
76.6,268,92.6,111,29.5,,"C[S@@+]([O-])c1c[nH]c2ncnc(N3C[C@@H](C#N)C[C@H]3c3nn4ccc(Cl)c4c(=O)n3-c3cccc(F)c3)c12 [Compound 349, (3S,5S)-5-(5-chloro-3-(3-fluorophenyl)-4-oxo-3,4-dihydropyrrolo[2,1-f][1,2,4]triazin-2-yl)-1-(5-((R)-methylsulfinyl)-7H-pyrrolo[2,3-d]pyrimidin-4-yl)pyrrolidine-3-carbonitrile]"
>100,4,>100,1,>100,35,N#Cc1c[nH]c2ncnc(N3C[C@@H](C#N)C[C@H]3c3nn4ccc(Cl)c4c(=O)n3-c3cccc(F)c3)c12 [Compound 350]
95.5,3,>100,1,89.6,81,N#Cc1cnc(N)nc1N1C[C@@H](C#N)C[C@H]1c1nn2ccc(Cl)c2c(=O)n1-c1ccccc1 [Compound 351]
97.2,11,>100,34,40.7,,"C[S+]([O-])c1n[nH]c2ncnc(N3CCC[C@H]3c3nn4ccc(Cl)c4c(=O)n3-c3ccccc3)c12 (stereo partly drawn) [Compound 352, 5-chloro-2-((2S)-1-(3-(methylsulfinyl)-1H-pyrazolo[3,4-d]pyrimidin-4-yl)pyrrolidin-2-yl)-3-phenylpyrrolo[2,1-f][1,2,4]triazin-4(3H)-one]"
79.2,223,33.8,,14.6,,C[S+]([O-])c1n[nH]c2ncnc(N3CC[C@H]3c3nn4ccc(Cl)c4c(=O)n3-c3ccccc3)c12 (stereo partly drawn) [Compound 353]
66.2,,37.9,,5,,"CC(O)c1cnc(N)nc1N1CC[C@H]1c1nn2ccc(Cl)c2c(=O)n1-c1ccccc1 (stereo partly drawn) [Compound 357, 2-((2S)-1-(2-amino-5-(1-hydroxyethyl)pyrimidin-4-yl)azetidin-2-yl)-5-chloro-3-phenylpyrrolo[2,1-f][1,2,4]triazin-4(3H)-one]"
>100,66,>100,17,62.0,269,"N#C[C@@H]1C[C@@H](c2nn3ccc(Cl)c3c(=O)n2-c2ccccc2)N(c2ncnc3[nH]cnc23)C1 [Compound 358, (3R,5S)-5-(5-chloro-4-oxo-3-phenyl-3,4-dihydropyrrolo[2,1-f][1,2,4]triazin-2-yl)-1-(9H-purin-6-yl)pyrrolidine-3-carbonitrile]"
>100,3,>100,1,94.8,44,N#C[C@H]1C[C@@H](c2nn3ccc(Cl)c3c(=O)n2-c2ccccc2)N(c2ncnc3[nH]cnc23)C1 [Compound 359]
>100,5,99.2,1,95.3,12,N#Cc1c[nH]c2ncnc(N3C[C@@H](C#N)C[C@H]3c3nn4ccc(Cl)c4c(=O)n3-c3ccccc3)c12 [Compound 360]
>100,27,97.9,25,79.2,103,N#C[C@H]1C[C@@H](c2nn3ccc(Cl)c3c(=O)n2-c2ccc(F)cc2)N(c2ncnc3[nH]cnc23)C1 [Compound 361]
97.4,40,56.0,,4.1,,CCC(=O)c1cnc(N)nc1N1CC[C@H]1c1nn2ccc(Cl)c2c(=O)n1-c1ccccc1 [Compound 362]
98.3,27,97.5,6,68.3,,"O=c1c2c(Cl)ccn2cc(C2CCCN2c2ncnc3[nH]cnc23)n1-c1ccccc1 (stereo not drawn) [Compound 363, 3-(1-(9H-purin-6-yl)pyrrolidin-2-yl)-8-chloro-2-phenylpyrrolo[1,2-a]pyrazin-1(2H)-one]"
>100,17,99.1,2,88.2,56,N#Cc1c[nH]c2ncnc(N3CCCC3c3cn4ccc(Cl)c4c(=O)n3-c3ccccc3)c12 (stereo not drawn) [Compound 364]
